For this test, the system named is normal human neonatal foreskin epidermal keratinocytes (NHEK-F). Description: Cell proliferation inhibition test. The settings on record: Keratinocyte, 72 h, NHEK-F cells, three days incubation, ATPlite or CellTiterGlo, read-out: IC50 (concentration of the compound at which the cell count is reduced by 50%). In kind it is cell-based. As to the method: 2×10^3 normal human neonatal foreskin epidermal keratinocytes (NHEK-F) (Kurabo, KK-4009) were suspended in 100 μL of Humedia-EG2 (Kurabo, KK-2150S) medium, plated in a 96-well plate and incubated overnight. The test compound was added on the following day and the cells were incubated for further three days. The cell count was determined using ATPlite (PerkinElmer, 6016739) or CellTiterGlo (Promega, G7573).
The inhibition rate was calculated from the following formula to determine the concentration of the compound at which the cell count is reduced by 50% (IC50). Inhibition rate (%)=100−(cell count in the presence of test compound/cell count in the absence of test compound)×100

Regarding `Cc1ccc(-c2cc(Nc3ncc(C4CC4)cc3C(=O)O)cc3ccn(C)c23)cc1` [Example 478, 5-cyclopropyl-2-((1-methyl-7-(p-tolyl)-1H-indol-5-yl)amino)nicotinic acid], the IC50 was at most 10 nM.

As for `CCn1c2c(c3cc(Nc4ncc(C5CC5)cc4C(=O)O)ccc31)CCCC2` [Example 166, 5-cyclopropyl-2-((9-ethyl-2,3,4,9-tetrahydro-1H-carbazol-6-yl)amino)nicotinic acid], the IC50 was 100 to 1000 nM.

Turning to `O=C(O)c1cc(C2CC2)cnc1Nc1ccc2c(ccn2-c2cccc(F)c2)c1` [Example 231, 5-cyclopropyl-2-((1-(3-fluorophenyl)-1H-indol-5-yl)amino)nicotinic acid], the IC50 was at most 10 nM.

Regarding `Cc1cc(Nc2ncc(C3CC3)cc2C(=O)O)cc2ccn(Cc3ccccc3)c12` [Example 629, 2-((1-benzyl-7-methyl-1H-indol-5-yl)amino)-5-cyclopropylnicotinic acid], the IC50 is at most 10 nM.

Consider `Cn1ccc2cc(Nc3ncc(C4CC4)cc3C(=O)O)cc(-c3cccc(OC(F)(F)F)c3)c21` [Example 492, 5-cyclopropyl-2-((1-methyl-7-(3-(trifluoromethoxy)phenyl)-1H-indol-5-yl)amino)nicotinic acid], for which the IC50 was at most 10 nM.

As for `O=C(O)c1cc(C2CC2)cnc1Nc1ccc2c(-c3ccccc3)c[nH]c2c1` [Example 43, 5-cyclopropyl-2-((3-phenyl-1H-indol-6-yl)amino)nicotinic acid], the IC50 was 10 to 100 nM.

Take `COCCCc1cccc(Cn2ccc3cc(Nc4ncc(C5CC5)cc4C(=O)O)ccc32)c1` [Example 509, 5-cyclopropyl-2-((1-(3-(3-methoxypropyl)benzyl)-1H-indol-5-yl)amino)nicotinic acid]: the IC50 was at most 10 nM.

Take `CCO/C=C/c1cc(Nc2ncc(C3CC3)cc2C(=O)O)cc2ccn(C)c12` [Example 604, 5-cyclopropyl-2-((7-((E)-2-ethoxyethenyl)-1-methyl-1H-indol-5-yl)amino)nicotinic acid]: the IC50 is 10 to 100 nM.

Turning to `O=C(O)c1cc(Br)cnc1Nc1ccc2c(ccn2Cc2cccc(F)c2)c1` [Example 627, 5-bromo-2-((1-(3-fluorobenzyl)-1H-indol-5-yl)amino)nicotinic acid], the IC50 was 10 to 100 nM.

Regarding `O=C(O)c1cc(C2CC2)cnc1Nc1ccc2c(-c3ccccc3)cccc2c1` [Example 177, 5-cyclopropyl-2-((5-phenylnaphthalen-2-yl)amino)nicotinic acid], the IC50 was at most 10 nM.

As for `CC(C)Cn1ccc2cc(Nc3ncc(C4CC4)cc3C(=O)O)cnc21` [Example 547, 5-cyclopropyl-2-((1-isobutyl-1H-pyrrolo(2,3-b)pyridin-5-yl)amino)nicotinic acid], the IC50 lay within 10 to 100 nM.

For `CCc1cc(Nc2ncc(C3CC3)cc2C(=O)O)cc2ccn(CC)c12` [Example 413, 5-cyclopropyl-2-((1,7-diethyl-1H-indol-5-yl)amino)nicotinic acid], the IC50 is 10 to 100 nM.

For `Cn1cc(C2CC2)c2cc(Nc3ncc(C4CC4)cc3C(=O)O)ccc21` [Example 393, 5-cyclopropyl-2-((3-cyclopropyl-1-methyl-1H-indol-5-yl)amino)nicotinic acid], the IC50 lay in the range of 10 to 100 nM.

`Cc1ccccc1-c1cc(Nc2ncc(C3CC3)cc2C(=O)O)cc2ccn(C)c12` [Example 476, 5-cyclopropyl-2-((1-methyl-7-(o-tolyl)-1H-indol-5-yl)amino)nicotinic acid]: the IC50 is at most 10 nM.

As to `CC(C)Cn1ccc2c(Nc3ncc(C4CC4)cc3C(=O)O)cccc21` [Example 431, 5-cyclopropyl-2-((1-isobutyl-1H-indol-4-yl)amino)nicotinic acid], the IC50 was at most 10 nM.

On to `O=C(O)c1cc(C2CC2)cnc1Nc1ccc2c(ccn2CCCc2ccccc2)c1` [Example 618, 5-cyclopropyl-2-((1-(3-phenylpropyl)-1H-indol-5-yl)amino)nicotinic acid], for which the IC50 is at most 10 nM.

With `O=C(O)c1cc(C2CC2)cnc1Nc1ccc2c(c1)OCC(=O)N2c1ccccc1` [Example 399, 5-cyclopropyl-2-((3-oxo-4-phenyl-3,4-dihydro-2H-benzo[b][1,4]oxazin-7-yl)amino)nicotinic acid], the IC50 was 100 to 1000 nM.

In the case of `CC(C)n1ccc2c(Nc3ncc(C4CC4)cc3C(=O)O)cccc21` [Example 435, 5-cyclopropyl-2-((1-isopropyl-1H-indol-4-yl)amino)nicotinic acid], the IC50 lay within 10 to 100 nM.

For `Cc1cc2cc(Nc3ncc(C4CC4)cc3C(=O)O)ccc2n1C` [Example 391, 5-cyclopropyl-2-((1,2-dimethyl-1H-indol-5-yl)amino)nicotinic acid], the IC50 was 100 to 1000 nM.

Regarding `O=C(O)c1cc(-c2ccccc2)ccc1Nc1ccc2c(ccn2Cc2ccccc2)c1` [Example 359, 4-((1-Benzyl-1H-indol-5-yl)amino)-[1,1′-biphenyl]-3-carboxylic acid], the IC50 lay within 10 to 100 nM.

As to `Cn1ccc2cc(Nc3ncc(C4CC4)cc3C(=O)O)cc(-c3ccccc3-c3ccccc3)c21` [Example 463, 2-((7-([1,1′-biphenyl]-2-yl)-1-methyl-1H-indol-5-yl)amino)-5-cyclopropylnicotinic acid], the IC50 was at most 10 nM.

In the case of `CC(C)Cn1c(CO)cc2cc(Nc3ncc(C4CC4)cc3C(=O)O)ccc21` [Example 175, 5-cyclopropyl-2-((2-(hydroxymethyl)-1-isobutyl-1H-indol-5-yl)amino)nicotinic acid], the IC50 fell in the range of 100 to 1000 nM.

As for `O=C(O)c1cc(Cl)ccc1Nc1ccc2c(ccn2-c2ccncc2)c1` [Example 315, 5-chloro-2-((1-(pyridin-4-yl)-1H-indol-5-yl)amino)benzoic acid], the IC50 was in the range of 10 to 100 nM.

As to `O=C(O)c1cc(Cl)ccc1Nc1ccc2c(ccn2Cc2cscn2)c1` [Example 302, 5-chloro-2-((1-(thiazol-4-ylmethyl)-1H-indol-5-yl)amino)benzoic acid], the IC50 was in the range of 10 to 100 nM.

As for `Cn1ccc2cc(Nc3ncc(C4CC4)cc3C(=O)O)cc(-c3ccccc3C(F)(F)F)c21` [Example 479], the IC50 was at most 10 nM.

With `O=C(O)c1cc(C2CC2)cnc1Nc1cnc2c(ccn2Cc2ccccc2)c1` [Example 545, 2-((1-benzyl-1H-pyrrolo(2,3-b)pyridin-5-yl)amino)-5-cyclopropylnicotinic acid], the IC50 was at most 10 nM.

For `O=C(O)c1cc(Cl)ccc1Nc1ccc2ccn(Cc3ccccc3)c2c1` [Example 4, 2-((1-benzyl-1H-indol-6-yl)amino)-5-chlorobenzoic acid], the IC50 fell in the range of 100 to 1000 nM.

In the case of `O=C(O)c1cc(C2CC2)cnc1Nc1cnc2c(ccn2CC2CCCCC2)c1` [Example 549], the IC50 is at most 10 nM.

On to `O=C(O)c1cc(C2CC2)cnc1Nc1cccc2c1ccn2CC1CCOC1` (stereo not shown) [Example 427, 5-cyclopropyl-2-((1-((tetrahydrofuran-3-yl)methyl)-1H-indol-4-yl)amino)nicotinic acid], for which the IC50 was in the range of 10 to 100 nM.

On to `O=C(O)c1cc(C2CC2)cnc1Nc1ccc2c(ccn2Cc2cccnc2)c1` [Example 137, 5-cyclopropyl-2-((1-(pyridin-3-ylmethyl)-1H-indol-5-yl)amino)nicotinic acid], for which the IC50 was in the range of 10 to 100 nM.

As for `COC(=O)c1cc(C2CC2)cnc1Nc1ccc2c(c1)c(-c1cccc(C#N)c1)cn2C` [Example 630], the IC50 was 100 to 1000 nM.
